The values below come from US7514424B2, “Substituted 4-(4-piperidin-4-yl-piperazin-1-yl)-azepane derivatives and their use as neurokinin antagonists” (Janssen Pharmaceutica N.V., priority 2002, dated 2009).

What all share (experiment): Signal transduction (intracellular Ca++, FLIPR), functional antagonistic activity
Common to all, as to format: cell-based

Test [1] deals with h-NK1 (Homo sapiens, UniProt P25103). The following applies: Ca++ peak, read-out: pIC50 h-NK1 (converted). As for the experimental part: (§1) This test evaluates in vitro functional NK1 antagonistic activity. For the measurements of intracellular Ca^++ concentrations the cells were grown on 96-well (black wall/transparent bottom) plates from Costar for 2 days until they reached confluence. The cells were loaded with 2 μM Fluo3 in DMEM containing 0.1% BSA and 2.5 mM probenecid for 1 h at 37° C. They were washed 3× with a Krebs buffer (140 mM NaCl, 1 mM MgCl2×6H2O, 5 mM KCl, 10 mM glucose, 5 mM HEPES; 1.25 mM CaCl2; pH 7.4) containing 2.5 mM probenecid and 0.1% BSA (Ca^++-buffer). The cells were preincubated with a concentration range of antagonists for 20 min at RT and Ca^++-signals after addition of the agonists were measured in a Fluorescence Image Plate
(§2) Reader (FLIPR from Molecular Devices, Crawley, England). The peak of the Ca^++-transient was considered as the relevant signal and the mean values of corresponding wells were analysed as described below.
(§3) The sigmoidal dose response curves were analysed by computerised curve-fitting, using the GraphPad Program. The EC50-value of a compound is the effective dose showing 50% of maximal effect. For mean curves the response to the agonist with the highest potency was normalised to 100%. For antagonist responses the IC50-value was calculated using non-linear regression.
(§4) The last colums indicates—without being limited thereto—for which action the compounds might be most suitable. Of course, since for some neurokinin receptors no data was determined, it is obvious that these compounds might be attributed to another suitable use.

Test [2] addresses T1, h-NK3 (Homo sapiens, UniProt P29371).
T1 sequence (P29371 1-465): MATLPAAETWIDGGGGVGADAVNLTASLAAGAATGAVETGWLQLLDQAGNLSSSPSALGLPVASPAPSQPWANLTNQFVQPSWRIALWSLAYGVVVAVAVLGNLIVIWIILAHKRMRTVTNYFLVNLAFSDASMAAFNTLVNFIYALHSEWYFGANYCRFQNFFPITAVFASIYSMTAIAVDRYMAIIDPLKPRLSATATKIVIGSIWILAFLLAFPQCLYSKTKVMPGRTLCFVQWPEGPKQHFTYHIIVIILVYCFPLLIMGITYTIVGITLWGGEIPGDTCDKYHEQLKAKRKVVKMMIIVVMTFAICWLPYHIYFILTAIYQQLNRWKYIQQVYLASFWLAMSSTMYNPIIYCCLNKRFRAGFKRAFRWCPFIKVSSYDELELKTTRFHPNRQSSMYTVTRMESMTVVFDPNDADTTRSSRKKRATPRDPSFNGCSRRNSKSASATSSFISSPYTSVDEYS
The following applies: Ca++ peak, read-out: pIC50 h-NK3 (converted). As for the experimental part:
[Worded in the source for another target; this target is reported under the same test.] as §1, §2, §3, §4

Test [3] has as its target T2, h-NK2 (Homo sapiens, UniProt P21452).
T2 sequence (P21452 1-398): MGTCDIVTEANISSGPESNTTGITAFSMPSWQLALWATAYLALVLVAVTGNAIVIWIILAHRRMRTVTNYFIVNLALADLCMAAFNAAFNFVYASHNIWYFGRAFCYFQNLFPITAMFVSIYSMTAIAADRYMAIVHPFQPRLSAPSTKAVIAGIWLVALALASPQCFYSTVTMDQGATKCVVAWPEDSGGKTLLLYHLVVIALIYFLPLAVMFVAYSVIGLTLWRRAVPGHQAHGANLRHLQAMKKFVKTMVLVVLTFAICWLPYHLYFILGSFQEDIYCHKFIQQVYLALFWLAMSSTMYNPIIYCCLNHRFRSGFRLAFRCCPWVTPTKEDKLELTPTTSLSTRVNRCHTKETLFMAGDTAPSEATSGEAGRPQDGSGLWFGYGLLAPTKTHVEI
The following applies: Ca++ peak, read-out: pIC50 h-NK2 (converted). As for the experimental part: [Worded in the source for another target; this target is reported under the same test.] as §1, §2, §3, §4

Sequence of h-NK1 (P25103 whole entry): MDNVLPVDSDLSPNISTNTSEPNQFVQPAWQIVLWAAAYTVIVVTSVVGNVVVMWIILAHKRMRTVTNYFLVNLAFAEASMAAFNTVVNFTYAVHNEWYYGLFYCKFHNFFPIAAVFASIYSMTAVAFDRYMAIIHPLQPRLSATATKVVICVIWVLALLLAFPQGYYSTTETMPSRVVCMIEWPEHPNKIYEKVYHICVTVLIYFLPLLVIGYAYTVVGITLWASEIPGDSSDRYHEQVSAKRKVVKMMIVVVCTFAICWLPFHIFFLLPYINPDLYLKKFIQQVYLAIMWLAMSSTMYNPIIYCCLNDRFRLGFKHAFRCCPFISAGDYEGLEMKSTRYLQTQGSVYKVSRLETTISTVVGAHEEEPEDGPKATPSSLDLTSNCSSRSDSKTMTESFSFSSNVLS

Regarding `CC(C)(C)OC(=O)N1CCCC(N2CCN(C3CCN(C(=O)c4cc(C(F)(F)F)cc(C(F)(F)F)c4)C(Cc4ccccc4)C3)CC2)CC1` (stereo not shown) [Compound 1], the results for the IC50 in test [1] and in test [2] were 32.4 nM and 10000 nM, respectively. For the compound `O=C(c1ccccc1)N1CCCC(N2CCN(C3CCN(C(=O)c4cc(C(F)(F)F)cc(C(F)(F)F)c4)C(Cc4ccccc4)C3)CC2)CC1` (stereo not shown) [Compound 3], the IC50 in test [1] was 200 nM. Same read-out and setting: the result for `CCOC(=O)N1CCCC(N2CCN(C3CCN(C(=O)c4cc(C(F)(F)F)cc(C(F)(F)F)c4)C(Cc4ccccc4)C3)CC2)CC1` (stereo not shown) [Compound 4] reads 166 nM; that for `O=C(c1ccc(F)c(F)c1)N1CCCC(N2CCN(C3CCN(C(=O)c4cc(C(F)(F)F)cc(C(F)(F)F)c4)C(Cc4ccccc4)C3)CC2)CC1` (stereo not shown) [Compound 5], 148 nM. Consider `O=C(c1cccc(F)c1)N1CCCC(N2CCN(C3CCN(C(=O)c4cc(C(F)(F)F)cc(C(F)(F)F)c4)C(Cc4ccccc4)C3)CC2)CC1` (stereo not shown) [Compound 6], for which the IC50 in test [1] was 158 nM; in test [3] it was 9330 nM; in test [2], 1350 nM. `O=C(c1ccoc1)N1CCCC(N2CCN(C3CCN(C(=O)c4cc(C(F)(F)F)cc(C(F)(F)F)c4)C(Cc4ccccc4)C3)CC2)CC1` (stereo not shown) [Compound 7]: the IC50 was 28.8 nM in test [1] and 1910 nM in test [2]. For `Cc1cc(C(=O)N2CCCC(N3CCN(C4CCN(C(=O)c5cc(C(F)(F)F)cc(C(F)(F)F)c5)C(Cc5ccccc5)C4)CC3)CC2)no1` (stereo not shown) [Compound 8], in that order: 28.2 nM and 10000 nM. On to `Cc1cccc(C(=O)N2CCCC(N3CCN(C4CCN(C(=O)c5cc(C(F)(F)F)cc(C(F)(F)F)c5)C(Cc5ccccc5)C4)CC3)CC2)c1` (stereo not shown) [Compound 9], for which the IC50 in test [1] is 302 nM.
